Measured values taken from ChEMBL document CHEMBL3430912, “GSK Tres Cantos Anti-Kinetoplastid Screening (TCAKS) Data”.

What was measured:
[1] = GSK_TCAKS: pIC50 HepG2 human cell line viability assay using luminiscence. […] Seeding density was checked to ensure that new mono-layers were not more than 50% confluent at the time of harvesting. Cell suspension was added to 500 mL of the same medium at a final density of 1.2 * 10^5 cells/mL. This cell suspension was dispensed (25 uL, 3000 cells per well) into 384-well clear-bottom plates using a Multidrop Combi dispenser. Prior to addition of the cell suspension, the screening compounds (250 nL) were pre-dispensed into the plates with an Echo liquid handler. Plates were incubated for 48 h at 37C, 5% CO2. After incubation, plates equilibrated at room temperature for 30 min before proceeding to develop the luminescent signal. The signal developer, CellTiter-Glo Reagent, was allowed to equilibrate at room temperature for 30 min and added to the plates (25uL per well) using a Multidrop Combi dispenser. Plates were left for 10 min at room temperature for stabilization and then read using a ViewLux.; type: toxicity, cell-based
[2] = biological target: Sterol 14-alpha demethylase (Trypanosoma cruzi (strain CL Brener), UniProt Q7Z1V1); experiment: GSK_TCAKS: pIC50 CYP51 from Trypanosoma cruzi.; type: functional
[3] = system: Trypanosoma brucei brucei; experiment: GSK_TCAKS: pIC50 Trypanosoma brucei viability assay using luminiscence. Assay plates (1536-well) were prepared. T. brucei cultures were harvested and counted in a CASY cell counter. A parasite suspension was prepared at a final concentration of 5 * 10^4 cells/mL in complete HMI9 medium and 6uL was dispensed to all wells containing compounds using a Multidrop Combi dispenser. 6uL of HMI9 media with 0.4% DMSO were dispensed to control columns. Plates were incubated for 24 h at 37C, 5% CO2 then tempered for 10 min at room temperature. ATP content was quantified by adding 4 uL of CellTiter-Glo Reagent (Promega) according to the manufacturer's instructions. Luminescence was measured using a ViewLux.; type: functional, organism-based; conditions: Lister 427, CASY
[4] = system: NIH3T3; experiment: GSK_TCAKS: pIC50 NIH 3T3 cell line viability assay using luminiscence. Tissue culture surface treated assay plates (1536-well) were used. […] The 100% cells survival control was determined exposing the host-cells to a 0.5% DMSO concentration, whereas the 100% toxicity control was achieved by seeding the cells in presence of Amphotericin B at 50uM. Plates were incubated for four days at 37C, 5% CO2. The assay readout was developed by addition of 5uL of CellTiter-Glo Reagent following the manufacturer's instructions. Luminiscence was measured using a ViewLux.; type: functional, cell-based; conditions: Mus musculus, NIH3T3, 96 h
[5] = system: Trypanosoma cruzi; experiment: GSK_TCAKS: pIC50 Trypanosoma cruzi viability assay using beta-GAL activity. This assay was run at single shot at 5uM compound concentration per well. The biological reagents consisted of NIH-3T3 host cells and trypomastigotes parasitic cells; both cell types were set to a 3.3 * 10^5 cells/mL dilution in assay DMEM by means of a CASY cell counter device using a 60um capillary. 6 uL of the mixture were dispensed per well (about 1 * 10^3 host-cells and 1 * 10^3 parasites) with a Multidrop Combi dispenser. […] In all wells, the percentage of DMSO never exceeded 0.5%. Plates incubated for four days at 37C, 5% CO2. The substrate used for the assay fluorescence intensity (FLINT) readout was resorufin-beta-D-galactopiranoside (Sigma-Aldrich) at 5uM per well. It was diluted in PBS supplemented with the soft detergent Igepal (Fluka).; type: functional, organism-based, Mus musculus; conditions: Tulahuen, NIH3T3
[6] = system: Leishmania donovani; experiment: GSK_TCAKS: pIC50 Leishmania donovani viability assay using fluorescence intensity. Assay plates (1536-well) were prepared by adding 30nL per well of compound. For single shot assay, the final compound concentration was 5uM. […] Briefly, eGFP LdBOB axenic amastigotes were harvested, fixed and counted in a CASY cell counter (Roche-Applied Science). A final concentration of 1.5 * 10^5 cells per well were prepared in amastigote media containing 500 U/mL penicillin/streptomycin (Invitrogen) and 6uL was dispensed to each experimental well using a Multidrop Combi dispenser (Thermo Scientific). 6uL of assay media was dispensed to control columns used as reference for 100% compound response. Following incubation for 72 h at 37C, 5% CO2, 2 uL of resazurin was added to each well at a final concentration of 0.5 mM in phosphate buffered saline (PBS) with IGEPAL (Sigma-Aldrich), 0.05% (v/v).; type: functional, organism-based
[7] = system: Leishmania donovani; experiment: GSK_TCAKS: pIC50 Leishmania donovani Imaging: THP-1 Host Macrophages. Assay plates (384-well) were prepared by adding 250nL of compound to each well. For single shot assay, the final compound concentration was 5 uM. […] Automated image analysis was performed with a script developed on Acapella High Content Imaging and Analysis Software (PerkinElmer). Output: THP-1 cell count were reported for each well.; type: functional, organism-based, Homo sapiens
[8] = system: Leishmania donovani; experiment: GSK_TCAKS: pIC50 Leishmania donovani Imaging: Amastigotes/Macrophages. Assay plates (384-well) were prepared by adding 250nL of compound to each well. For single shot assay, the final compound concentration was 5 uM. […] Automated image analysis was performed with a script developed on Acapella High Content Imaging and Analysis Software (PerkinElmer). Output: Average number of amastigotes per macrophage cell were reported for each well.; type: functional, organism-based, Homo sapiens; conditions: THP-1
[9] = system: Trypanosoma cruzi; experiment: (§1) GSK_TCAKS: pIC50 Trypanosoma cruzi Imaging: Infected Cells. […] Cells were then washed once with PBS before infection. T. cruzi trypomastigotes, collected at days 5 to 8 after infection from LLC-MK2 parasite infected cultures, were allowed to swim out for 4h at 37C from a centrifuged pellet (2,500 rpm/10 min/room temperature). Trypomastigotes were then collected and counted in a CASY Cell Counter. Trypomastigotes, in supplemented DMEM, were added to H9c2 cultures in a multiplicity of infection of 1 and incubated for 18 h. Cells were washed once with PBS before incubation of the infected H9c2 monolayer with trypsin (Life-Technologies) to detach cells from the flask. Cells were counted in a CASY Cell Counter using a 150 um capillary and their density set at 5 * 10^4 cells per mL in supplemented assay DMEM. Infected H9c2 were dispensed into 384-well poly-lysine coated assay plates at 50uL per well using a Multidrop Combi dispenser. After seeding them, the plates were incubated at 37C, 5% CO2 for 72h. Cultures were then fixed and stained by addition of 50 uL of a solution containing 8% formaldehyde and 4 uM DRAQ5 DNA dye (BioStatus, UK) per well. […] Five images were collected per well for reliable statistical analysis. Automated image analysis was performed with a script developed on Acapella High Content Imaging and Analysis Software (PerkinElmer). Output: percentage of infected cells per well as a second infection marker.; type: functional, organism-based, Rattus norvegicus; conditions: H9c2, 4 h
[10] = system: Trypanosoma cruzi; experiment: GSK_TCAKS: pIC50 Trypanosoma cruzi Imaging: Amastigotes/Cell. […] Cells were then washed once with PBS before infection. T. cruzi trypomastigotes, collected at days 5 to 8 after infection from LLC-MK2 parasite infected cultures, were allowed to swim out for 4h at 37C from a centrifuged pellet (2,500 rpm/10 min/room temperature). Trypomastigotes were then collected and counted in a CASY Cell Counter. Trypomastigotes, in supplemented DMEM, were added to H9c2 cultures in a multiplicity of infection of 1 and incubated for 18 h. Cells were washed once with PBS before incubation of the infected H9c2 monolayer with trypsin (Life-Technologies) to detach cells from the flask. Cells were counted in a CASY Cell Counter using a 150 um capillary and their density set at 5 * 10^4 cells per mL in supplemented assay DMEM. Infected H9c2 were dispensed into 384-well poly-lysine coated assay plates at 50uL per well using a Multidrop Combi dispenser. After seeding them, the plates were incubated at 37C, 5% CO2 for 72h. Cultures were then fixed and stained by addition of 50 uL of a solution containing 8% formaldehyde and 4 uM DRAQ5 DNA dye (BioStatus, UK) per well. […] Five images were collected per well for reliable statistical analysis. Automated image analysis was performed with a script developed on Acapella High Content Imaging and Analysis Software (PerkinElmer). Output: number of amastigotes per cell as infection level measurement.; type: functional, organism-based, Rattus norvegicus; conditions: H9c2, 4 h
[11] = system: Trypanosoma cruzi; experiment: as §1, with “H2C9” for “Trypanosoma cruzi”, “H9c2 Host Cardiomyocytes.” for “Infected Cells.”, “Number” for “percentage”, “H9c2 Host Cardiomyocytes nuclei to determine drug-related cytotoxicity.” for “infected cells per well as a second infection marker.”; type: functional, organism-based, Rattus norvegicus; conditions: H9c2, 4 h
[12] = system: Leishmania donovani; experiment: GSK_TCAKS: pIC50 Leishmania donovani Imaging: Infected Macrophages. Assay plates (384-well) were prepared by adding 250nL of compound to each well. For single shot assay, the final compound concentration was 5 uM. […] Automated image analysis was performed with a script developed on Acapella High Content Imaging and Analysis Software (PerkinElmer). Output: Percent of infected macrophage cells were reported for each well.; type: functional, organism-based, Homo sapiens; conditions: THP-1
[13] = system: Trypanosoma brucei brucei; experiment: GSK_TCAKS: pIC50 Trypanosoma brucei viability assay using fluorescence intensity. Assay plates (1536-well) were prepared by dispensing 25nL of compound solution per well using an Echo acoustic dispenser (Labcyte).; type: functional, organism-based; conditions: Lister 427, 2 h

Sterol 14-alpha demethylase, sequence (Q7Z1V1 whole entry): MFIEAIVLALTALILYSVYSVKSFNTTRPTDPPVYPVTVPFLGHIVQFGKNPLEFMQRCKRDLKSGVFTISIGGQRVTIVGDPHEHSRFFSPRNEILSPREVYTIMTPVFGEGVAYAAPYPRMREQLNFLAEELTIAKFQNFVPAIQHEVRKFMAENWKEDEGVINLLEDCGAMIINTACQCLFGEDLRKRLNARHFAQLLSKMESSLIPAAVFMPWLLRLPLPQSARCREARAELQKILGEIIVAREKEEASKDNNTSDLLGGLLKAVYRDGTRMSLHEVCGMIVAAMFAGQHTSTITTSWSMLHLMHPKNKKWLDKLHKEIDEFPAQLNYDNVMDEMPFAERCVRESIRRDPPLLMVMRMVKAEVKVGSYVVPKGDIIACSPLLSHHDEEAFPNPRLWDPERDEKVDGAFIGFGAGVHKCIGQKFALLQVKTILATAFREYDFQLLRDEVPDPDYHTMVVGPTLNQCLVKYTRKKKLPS

Row | Structure (SMILES) | IC50 at 48 h [1] | IC50 [2] | IC50 [3] | IC50 [4] | IC50 [5] | IC50 [6] | IC50 [7] | IC50 [8] | IC50 [9] | IC50 [10] | IC50 [11] | IC50 [12] | IC50 [13]
1 | CC(C)Oc1cccc(N2CCC(C(=O)N3CCCN(C(C)C)CC3)CC2)c1 | > 100 µM | > 100 µM | > 39.8 µM | 31.6 µM | 1.26 µM | > 50.1 µM | > 50.1 µM | > 50.1 µM | 0.631 µM | 0.251 µM | > 50.1 µM | > 50.1 µM | > 39.8 µM
2 | CCN(Cc1ccncc1)Cc1ccc(NC(=O)c2cc(-c3ccc(F)cc3)n[nH]2)cc1 | > 100 µM | 0.0794 µM | > 39.8 µM | 10 µM | 0.398 µM | 15.8 µM | 5.01 µM | 2.51 µM | 0.251 µM | 0.251 µM | > 50.1 µM | > 50.1 µM | > 39.8 µM
3 | COc1cccc(CCNC(=O)C(c2cn[nH]c2)N2CCN(c3ccc(Cl)cc3)CC2)c1 (stereo not given) | 50.1 µM | 0.0631 µM | 31.6 µM | 31.6 µM | 0.02 µM | 12.6 µM | 25.1 µM | 10 µM | 0.02 µM | 0.0158 µM | 39.8 µM | 20 µM | 20 µM
4 | COc1ccc2nc(N(Cc3cccnc3)C(=O)C3CCC3)sc2c1 | > 100 µM | 0.0631 µM | 39.8 µM | 50.1 µM | 0.126 µM | 12.6 µM | > 50.1 µM | 50.1 µM | 0.126 µM | 0.1 µM | > 50.1 µM | > 50.1 µM | 20 µM
5 | CC(C)c1cc(C(=O)N2CCCC(c3cc4ncccc4[nH]3)C2)on1 (stereo not given) | > 100 µM | 50.1 µM | > 39.8 µM | 20 µM | 2 µM | > 50.1 µM | > 50.1 µM | > 50.1 µM | 3.16 µM | 1 µM | > 50.1 µM | > 50.1 µM | > 39.8 µM
6 | O=C(NCc1nnc2n1CCCCC2)c1ccc(-c2ccc(F)cc2)o1 | > 100 µM | 79.4 µM | 0.251 µM | > 50.1 µM | 1.41 µM | > 50.1 µM | > 50.1 µM | > 50.1 µM | 1.58 µM | 1 µM | > 50.1 µM | > 50.1 µM | 0.126 µM
7 | Fc1ccc(O[C@H]2C[C@H](NCc3cccc4cn[nH]c34)C2)cc1C(F)(F)F | 25.1 µM | 0.126 µM | 10 µM | 12.6 µM | 0.794 µM | 20 µM | 10 µM | 7.94 µM | 0.2 µM | 0.158 µM | 7.94 µM | 7.94 µM | 7.94 µM
8 | c1cc(-c2ncc(-c3ccn[nH]3)s2)ccn1 | > 100 µM | 0.0398 µM | > 39.8 µM | > 50.1 µM | 0.178 µM | > 50.1 µM | > 50.1 µM | 10 µM | 0.251 µM | 0.251 µM | > 50.1 µM | > 50.1 µM | 20 µM
9 | CNc1c(C(N)=O)c(-c2ccc3scnc3c2)nn1CC(F)(F)F | > 100 µM | > 100 µM | > 39.8 µM | 20 µM | 0.126 µM | > 50.1 µM | > 50.1 µM | > 50.1 µM | 0.251 µM | 0.158 µM | > 50.1 µM | > 50.1 µM | 31.6 µM
10 | CNc1cncc(C2CCCN2C(=O)Cc2coc3cc(C)ccc23)n1 (stereo not given) | > 100 µM | 0.0251 µM | > 39.8 µM | > 50.1 µM | 0.158 µM | 3.16 µM | > 50.1 µM | 0.794 µM | 0.2 µM | 0.2 µM | > 50.1 µM | > 50.1 µM | > 39.8 µM
